Source: ChEMBL document CHEMBL1123223, “New effective gonadotropin releasing hormone antagonists with minimal potency for histamine release in vitro” (J Med Chem, 1986)
Converted amounts (≈) assume the structure as drawn.

Legend:
[1] = species: Rattus norvegicus; test: Compound was tested in vitro for its ability to inhibit histamine release from rat mast cells.; type: functional; settings: read-out: ED50 (the source's name)
[2] = species: Rattus norvegicus; test: GnRH antagonistic dose of compound for 0 rats ovulation out of total 6 using anti-ovulatory assay in experiment 2; type: functional
[3] = target: T1, Gonadotropin-releasing hormone receptor (Rattus norvegicus) (UniProt P30969); test: Inhibition of GnRH-mediated LH secretion by cultured pituitary cells; type: functional, cell-based; settings: Pituitary gland cell
T1 sequence (whole entry): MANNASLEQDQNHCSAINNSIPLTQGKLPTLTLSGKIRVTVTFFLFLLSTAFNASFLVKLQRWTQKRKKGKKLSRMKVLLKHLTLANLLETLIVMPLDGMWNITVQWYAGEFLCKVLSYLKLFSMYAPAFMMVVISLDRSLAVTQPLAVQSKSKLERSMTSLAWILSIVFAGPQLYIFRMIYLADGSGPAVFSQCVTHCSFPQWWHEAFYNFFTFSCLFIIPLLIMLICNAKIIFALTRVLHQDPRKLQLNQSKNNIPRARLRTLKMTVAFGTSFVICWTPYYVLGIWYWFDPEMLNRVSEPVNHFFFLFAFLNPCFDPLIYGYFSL

[4] = species: Rattus norvegicus; test: Dissociation constant was determined in rat pituitary cells.; type: cell-based; settings: pituitary gland cell
[5] = species: Rattus norvegicus; test: GnRH antagonistic dose of compound for 2 rats ovulation out of total 10 using anti-ovulatory assay in experiment 1; type: functional

- EC50 [1]: 2.1 µg/mL (≈ 1.44 µM)
- Relative potency [3]: 0.44
Structure (SMILES): CC(=O)N[C@H](Cc1ccc2ccccc2c1)C(=O)N[C@H](Cc1ccc(Cl)cc1)C(=O)N[C@H](Cc1cccnc1)C(=O)N[C@@H](CO)C(=O)N[C@@H](CCCN=C(N)N)C(=O)N[C@H](Cc1c[nH]c2ccccc12)C(=O)N[C@@H](CC(C)C)C(=O)N[C@@H](CCCN=C(N)N)C(=O)N1CCC[C@H]1C(=O)N[C@H](C)C(=O)O
- ED100 [2]: 1 µg/kg
- Kd [4]: 0.96 nM
- ED100 [5]: 0.5 µg/kg
